Consider 17 compounds from ChEMBL document CHEMBL1926516, “Induction of cell cycle arrest by the carbazole alkaloid Clauszoline-I from Clausena vestita D. D. Tao via inhibition of the PKCδ phosphorylation” (Eur J Med Chem, 2012).

As a reminder, the IC50 is the concentration that gives 50% inhibition.

Activity calls are given as the source filed them. The calls are words filed in the database; no cut-off is given here.

The subject of data set [1] is HepG2. Put plainly: cells. Type of data set: functional, cell-based. The note with it: Homo sapiens, HepG2, 48 h.
Data set [2] has as its system HepG2. In words: Growth inhibition of human HepG2 cells at 4 uM after 24 to 72 hrs by WST-8 based CCK8 assay. In kind it is functional, cell-based.
The test system of data set [3] is HepG2. Put plainly: Growth inhibition of human HepG2 cells at 16 uM after 24 to 72 hrs by WST-8 based CCK8 assay. In kind it is functional, cell-based. On the technique in general: Tetrazolium assays rely on reduction of a dye to a coloured formazan, in cell work by metabolically active cells.
Data set [4] can be described thus: Cytotoxicity human L02 cells after 48 hrs by WST-8 based CCK8 assay. Type of data set: cell-based. The note with it: L02, 48 h.
In another data set the test system is HeLa. In words: Growth inhibition human HeLa cells after 48 hrs by WST-8 based CCK8 assay. In kind it is functional, cell-based.
For the next data set, the system named is T98G. Put plainly: Growth inhibition human T98G cells after 48 hrs by WST-8 based CCK8 assay. In kind it is cell-based.
Data set [5] in a line: Growth inhibition human CNE2 cells after 48 hrs by WST-8 based CCK8 assay. Type of data set: functional, cell-based. As to conditions: CNE-2, 48 h.
The subject of another data set is MDA-MB-231. Put plainly: Growth inhibition human MDA-MB-231 cells after 48 hrs by WST-8 based CCK8 assay. In kind it is functional, cell-based. The note with it: MDA-MB-231, 48 h.
In data set [6] the test system is HepG2. Put plainly: Cytotoxicity against human HepG2 cells assessed as increase in cells with filamentous protrusions at 16 uM after 24 hrs using […] staining by confocal microscopy. In kind it is functional, cell-based.
The target of data set [7] is Transforming protein RhoA (Homo sapiens) (UniProt P61586). Put plainly: Inhibition of RhoA activation in human HepG2 cells assessed as decrease of membrane-associated protein level at 16 uM after 24 hrs by Western blot analysis. Type of data set: cell-based. (Immunoblotting shows a protein as a band on a membrane.)
For data set [8] the target is unchanged. In words: Inhibition of RhoA activation in human L02 cells assessed as decrease of membrane-associated protein level at 16 uM after 24 hrs by Western blot analysis. In kind it is cell-based.
The subject of data set [9] is HepG2. In words: Induction of apoptosis in human HepG2 cells at 16 uM after 24 hrs using propidium iodide staining by flow cytometry. Type of data set: functional, cell-based. On the technique in general: A flow cytometer gives signals particle by particle.
Data set [10] has as its system HepG2. In words: Cell cycle arrest in human HepG2 cells assessed as accumulation at G0/G1 phase at 16 uM after 24 hrs using propidium iodide staining by flow cytometry (reference value: 71.5 %). In kind it is functional.
The subject of data set [11] is HepG2. Put plainly: Cell cycle arrest in human HepG2 cells assessed as accumulation at S phase at 16 uM after 24 hrs using propidium iodide staining by flow cytometry (reference value: 21.6 %). Type of data set: functional.
Data set [12] relates to HepG2. In words: Cell cycle arrest in human HepG2 cells assessed as accumulation at G2/M phase at 16 uM after 24 hrs using propidium iodide staining by flow cytometry (reference value: 6.9 %). Type of data set: functional.
Data set [13] concerns HepG2. In words: Cell cycle arrest in human HepG2 cells assessed as decrease in Chk1 protein level in nucleus at 16 uM after 24 hrs by Western blot analysis. Type of data set: functional, cell-based.
Data set [14] has as its system HepG2. In words: Cell cycle arrest in human HepG2 cells assessed as increase in cytoplasmic Chk1 protein level at 16 uM after 24 hrs by Western blot analysis. In kind it is functional, cell-based.
Data set [15] has as its system HepG2. In words: Cell cycle arrest in human HepG2 cells assessed as effect on Chk2 protein level in nucleus at 16 uM after 24 hrs by Western blot analysis. Type of data set: functional, cell-based.
For data set [16], the system named is HepG2. Put plainly: Cell cycle arrest in human HepG2 cells assessed as effect on cytoplasmic Chk2 protein level at 16 uM after 24 hrs by Western blot analysis. In kind it is functional, cell-based.
The nature of data set [17]: Cell cycle arrest in human L02 cells assessed as effect on Chk1 protein level in nucleus at 16 uM after 24 hrs by Western blot analysis. The note with it: l02, 24 h. In kind it is ADME, cell-based.
Data set [18] in a line: Cell cycle arrest in human L02 cells assessed as effect on cytoplasmic Chk1 protein level at 16 uM after 24 hrs by Western blot analysis. In kind it is ADME, cell-based. The note with it: l02, 24 h.
Data set [19] is described as follows: Cell cycle arrest in human L02 cells assessed as effect on Chk2 protein level in nucleus at 16 uM after 24 hrs by Western blot analysis. Type of data set: ADME, cell-based. As to conditions: l02, 24 h.
A short description of data set [20]: Cell cycle arrest in human L02 cells assessed as effect on cytoplasmic Chk2 protein level at 16 uM after 24 hrs by Western blot analysis. As to conditions: l02, 24 h. In kind it is ADME, cell-based.
Data set [21] concerns the target Protein kinase C delta type (Homo sapiens) (UniProt Q05655). Put plainly: Inhibition of PKCdelta phosphorylation at Ser643 in human HepG2 cells by Western blot analysis. In kind it is cell-based.
Data set [22] shares this target. Put plainly: Inhibition of PKCdelta phosphorylation at Ser643 in human L02 cells by Western blot analysis. Type of data set: cell-based.
Data set [23] concerns the target PKC alpha and beta-2 (Homo sapiens) (UniProt P17252+P05771). Put plainly: Inhibition of PKCalpha/beta2 phosphorylation at Thr 638/641 in human HepG2 cells by Western blot analysis. In kind it is cell-based.
The target of data set [24] is Protein kinase C delta type (Homo sapiens) (UniProt Q05655). In words: Inhibition of PKCdelta phosphorylation at Thr505 in human L02 cells by Western blot analysis. In kind it is cell-based.
Data set [25] addresses Protein kinase C iota type/zeta type (Homo sapiens) (UniProt P41743+Q05513). In words: Inhibition of PKCzeta/lambda phosphorylation at Thr410/403 in human HepG2 cells by Western blot analysis. Type of data set: cell-based.
The subject of data set [26] is HepG2. In words: Cytotoxicity against human HepG2 cells assessed as decrease in F-actin staining at 16 uM after 24 hrs using […] staining by confocal microscopy. In kind it is functional, cell-based.
The target in data set [27] is Transforming protein RhoA (Homo sapiens) (UniProt P61586). Put plainly: Inhibition of RhoA activation in human HepG2 cells assessed as decrease of membrane-associated protein level at 10 uM after 24 hrs by Western blot analysis. In kind it is cell-based.
In data set [28] the target is Protein kinase C delta type (Homo sapiens) (UniProt Q05655). As to conditions: HepG2, 10 uM.
Description: Inhibition of PKCdelta phosphorylation at Ser643 in human HepG2 cells at 10 uM after 1 hr by Western blot analysis

Transforming protein RhoA (Homo sapiens), sequence (P61586 whole entry): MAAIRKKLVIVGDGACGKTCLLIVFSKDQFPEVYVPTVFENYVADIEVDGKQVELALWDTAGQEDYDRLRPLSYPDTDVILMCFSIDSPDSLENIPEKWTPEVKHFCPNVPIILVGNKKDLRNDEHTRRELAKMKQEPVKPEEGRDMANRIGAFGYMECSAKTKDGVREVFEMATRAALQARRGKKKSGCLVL
Protein kinase C delta type (Homo sapiens), sequence (Q05655 whole entry, looked up): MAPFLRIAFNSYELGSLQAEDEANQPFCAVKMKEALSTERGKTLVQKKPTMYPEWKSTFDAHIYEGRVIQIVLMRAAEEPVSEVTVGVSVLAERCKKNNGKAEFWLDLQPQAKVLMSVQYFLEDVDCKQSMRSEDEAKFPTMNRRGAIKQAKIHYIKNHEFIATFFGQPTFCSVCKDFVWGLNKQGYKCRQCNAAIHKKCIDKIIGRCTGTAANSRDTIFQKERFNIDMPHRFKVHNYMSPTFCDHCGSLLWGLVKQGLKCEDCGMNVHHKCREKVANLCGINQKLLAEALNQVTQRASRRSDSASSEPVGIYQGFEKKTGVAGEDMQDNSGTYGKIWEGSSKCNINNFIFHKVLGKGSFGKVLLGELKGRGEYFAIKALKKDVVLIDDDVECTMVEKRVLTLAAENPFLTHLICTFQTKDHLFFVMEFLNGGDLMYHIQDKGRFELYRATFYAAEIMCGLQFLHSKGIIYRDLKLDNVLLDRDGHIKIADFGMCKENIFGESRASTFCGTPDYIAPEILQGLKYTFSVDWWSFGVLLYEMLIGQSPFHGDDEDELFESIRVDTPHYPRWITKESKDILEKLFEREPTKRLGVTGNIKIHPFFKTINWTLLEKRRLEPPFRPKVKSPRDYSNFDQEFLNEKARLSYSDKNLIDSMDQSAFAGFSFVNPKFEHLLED
PKC alpha and beta-2 (Homo sapiens), sequence (P05771 whole entry, looked up): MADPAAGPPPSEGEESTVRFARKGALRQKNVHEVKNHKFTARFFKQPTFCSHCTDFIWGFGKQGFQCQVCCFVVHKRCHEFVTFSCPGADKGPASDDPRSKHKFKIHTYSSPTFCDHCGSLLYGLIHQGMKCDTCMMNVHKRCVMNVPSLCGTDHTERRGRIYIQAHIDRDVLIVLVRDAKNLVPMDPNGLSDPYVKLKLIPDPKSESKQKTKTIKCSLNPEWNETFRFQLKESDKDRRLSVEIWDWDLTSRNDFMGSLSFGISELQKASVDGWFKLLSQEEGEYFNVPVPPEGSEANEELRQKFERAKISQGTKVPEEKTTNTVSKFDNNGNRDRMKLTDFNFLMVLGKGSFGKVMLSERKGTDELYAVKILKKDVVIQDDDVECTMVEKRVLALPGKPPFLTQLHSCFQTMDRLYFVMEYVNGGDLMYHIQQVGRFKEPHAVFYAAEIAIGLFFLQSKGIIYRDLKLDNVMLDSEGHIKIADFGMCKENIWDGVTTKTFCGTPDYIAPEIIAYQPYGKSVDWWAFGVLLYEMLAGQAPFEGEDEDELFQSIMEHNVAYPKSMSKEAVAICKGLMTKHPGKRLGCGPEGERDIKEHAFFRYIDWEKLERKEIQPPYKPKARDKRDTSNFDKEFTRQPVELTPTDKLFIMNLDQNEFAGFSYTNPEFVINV
Protein kinase C iota type/zeta type (Homo sapiens), sequence (P41743 whole entry, looked up): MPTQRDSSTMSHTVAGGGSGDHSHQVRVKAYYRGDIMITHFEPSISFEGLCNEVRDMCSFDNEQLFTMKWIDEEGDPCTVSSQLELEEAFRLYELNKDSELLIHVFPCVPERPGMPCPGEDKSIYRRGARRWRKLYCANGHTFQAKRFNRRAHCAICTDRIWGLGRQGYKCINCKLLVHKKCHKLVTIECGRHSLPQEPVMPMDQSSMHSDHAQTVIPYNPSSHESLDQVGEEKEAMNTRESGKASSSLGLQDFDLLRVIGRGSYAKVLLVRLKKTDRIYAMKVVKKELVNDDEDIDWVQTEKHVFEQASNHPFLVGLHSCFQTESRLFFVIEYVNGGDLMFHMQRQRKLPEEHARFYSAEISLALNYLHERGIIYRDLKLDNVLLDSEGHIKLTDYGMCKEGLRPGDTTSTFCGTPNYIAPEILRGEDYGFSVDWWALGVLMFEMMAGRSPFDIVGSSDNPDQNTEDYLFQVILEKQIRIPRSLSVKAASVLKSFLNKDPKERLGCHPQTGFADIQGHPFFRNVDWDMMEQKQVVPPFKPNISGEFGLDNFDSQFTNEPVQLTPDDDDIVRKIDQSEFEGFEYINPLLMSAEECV
Protein kinase C iota type/zeta type (Homo sapiens), sequence (Q05513 whole entry, looked up): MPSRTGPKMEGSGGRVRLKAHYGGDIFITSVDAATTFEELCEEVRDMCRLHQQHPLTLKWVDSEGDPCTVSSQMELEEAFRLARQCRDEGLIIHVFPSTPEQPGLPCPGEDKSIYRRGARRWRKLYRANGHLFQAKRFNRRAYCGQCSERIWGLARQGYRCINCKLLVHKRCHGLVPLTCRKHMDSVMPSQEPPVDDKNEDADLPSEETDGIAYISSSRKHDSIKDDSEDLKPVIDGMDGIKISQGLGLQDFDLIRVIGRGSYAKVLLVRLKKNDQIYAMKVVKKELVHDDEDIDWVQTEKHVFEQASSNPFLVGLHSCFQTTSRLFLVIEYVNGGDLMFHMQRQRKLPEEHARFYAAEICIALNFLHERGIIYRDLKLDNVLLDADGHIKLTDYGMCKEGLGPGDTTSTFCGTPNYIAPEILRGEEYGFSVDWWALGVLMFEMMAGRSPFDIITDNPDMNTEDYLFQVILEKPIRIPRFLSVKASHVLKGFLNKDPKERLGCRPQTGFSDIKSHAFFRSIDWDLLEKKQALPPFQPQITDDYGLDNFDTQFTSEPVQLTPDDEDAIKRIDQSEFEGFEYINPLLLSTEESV

Compound `COC(=O)c1ccc2[nH]c3ccccc3c2c1` returned a half-inhibitory concentration (IC50) with HepG2 [1] of 36.9 µM.
Regarding `COC(=O)c1cc(O)c2[nH]c3ccccc3c2c1` [CLAUSINE E], the IC50 is 15.8 µM in the data set with HepG2 [1]; more than 160 µM in [4]; 13.3 µM in the data set with HeLa; 71.6 µM with T98G; 16.9 µM in data set [5]; 37.1 µM with MDA-MB-231. The “growth inhibition (GI)” value in the data set on HepG2 [2] and with HepG2 [3] was “Active” throughout. The outcome in the data set with HepG2 [6], with HepG2 [13], in the data set on HepG2 [14] and in the data set on HepG2 [26] was Active. Further, the inhibition entry in data set [7] is “Active”. Also, the inhibition result in [8], in [22], in data set [23], in [24] and in data set [25] was “inactive” each time. The outcome in the data set on HepG2 [9], in the data set with HepG2 [15] and in the data set on HepG2 [16] was inactive. For the same compound, the Activity was 55.9% in the data set with HepG2 [10]; 31.1% in the data set with HepG2 [11]; 13.1% in the data set on HepG2 [12]; “Non-toxic” in data set [17]; “Non-toxic” in data set [18]; “Non-toxic” in data set [19]. Also, the Activity result in data set [20] was “Non-toxic”. For the same compound, the inhibition result in data set [21] was “Dose-dependent effect”.
Compound `O=Cc1cc2c(cc1O)[nH]c1ccccc12` [MUKONAL] showed an IC50 in the data set on HepG2 [1] of 65.9 µM.
As for `COC(=O)c1cc2c(cc1O)[nH]c1ccccc12` [MUKONIDINE], in the data set on HepG2 [1], the IC50 was more than 160 µM.
For the compound `COC(=O)c1cc2c(cc1OC)[nH]c1cc(OC)ccc12` [CLAUSZOLINE C], the IC50 in the data set with HepG2 [1] was more than 160 µM.
For `CC(=O)c1c(O)c(C)c(O)c(Cc2c(O)c3c(c(C(=O)/C=C/c4ccccc4)c2O)OC(C)(C)C=C3)c1O`, the inhibition result in data set [27] and in [28] was “Active” each time.
Take `COc1c2ccoc2nc2c(OC)cccc12` [GAMMA-FAGARINE]: the IC50 with HepG2 [1] was more than 160 µM.
In the data set with HepG2 [1], `COc1ccc2c(c1)[nH]c1cc(OC)c(C(=O)O)cc12` [CLAUSINE K] had an IC50 of 24.4 µM.
`O=Cc1cc(O)c2[nH]c3ccc(O)cc3c2c1` came in with an IC50 with HepG2 [1] of 135 µM.
In turn, `COc1c2ccccc2nc2occc12` [DICTAMNINE] displayed an IC50 with HepG2 [1] of 55.2 µM.
Compound `COc1cc(=O)n(C)c2ccccc12` yielded an IC50 in the data set on HepG2 [1] of more than 160 µM.
With `O=Cc1cc2c(cc1O)[nH]c1cc(O)ccc12` [CLAUSINE O], the midpoint of inhibition in the data set with HepG2 [1], the IC50, lay at 32.8 µM.
`COc1ccc2c(c1)[nH]c1cc(O)c(C=O)cc12` registered an IC50 with HepG2 [1] of 28.6 µM.
Compound `Cc1cc2c([nH]c3ccccc32)c2c1OC(C)(C)C=C2` [GRINIMIBINE] came in with an IC50 in the data set on HepG2 [1] of more than 160 µM.
In the case of `COc1ccc2c(c1)[nH]c1ccc(C=O)cc12` [CLAUSZOLINE K], the IC50 worked out at 4.23 µM with HepG2 [1] and 72.5 µM in data set [4]. For the same compound, the “growth inhibition (GI)” value in the data set on HepG2 [2] and in the data set on HepG2 [3] was “Active” each time.
As to `COc1ccc2c(c1)[nH]c1cc(OC)c(C=O)cc12` [LANSINE], the IC50 in the data set on HepG2 [1] was found to be 102 µM.
As to `Cc1cc2c(cc1O)[nH]c1ccccc12`, the IC50 in the data set with HepG2 [1] was determined as 14.4 µM; in data set [4], 85.2 µM.
